Measurements: patent US8883963B2 (Cadila Healthcare Limited, priority 2007, dated 2014)

Assays:
Human GLP-1 receptor = target: T1, Human GLP-1 receptor (Homo sapiens, UniProt P43220); assay: In vitro Human GLP-1 R agonist activity (cyclic AMP determination) in CHO/human GLP1R cells; type: cell-based
T1 construct: The full-length cDNA was cloned in pcDNA3.1(+); expressed in transfected cells

human glucagon receptor = target: T2, human glucagon receptor (Homo sapiens, UniProt P47871); assay: In vitro human glucagon antagonist activity (inhibition of cAMP production) in CHO/human glucagon R cells; type: cell-based; conditions: with saturated concentration of glucagon peptide
T2 construct: The full-length cDNA was cloned in pcDNA3.1 (Invitrogen); expressed in transfected cells

[1] = Stability in simulated intestinal fluid; type: in vitro ADME; conditions: 2 μM peptidomimetic, simulated intestinal fluid pH 7.5, 37° C.; for half-life at 2 μM: read-out: half-life (t1/2) when incubated with simulated intestinal fluid
Experimental: (§1) Reactions were terminated by the addition of TFA/H2O (15 mL, 10% (v/v)). […] The column was equilibrated with TFA/H20, at a flow rate of 1 mL/min.

DPP IV = DPP IV (Homo sapiens, UniProt P27487); assay: Stability against DPP IV enzyme; type: in vitro ADME; conditions: 37° C.; for % degradation of peptidomimetics in 24 h when incubated with DPP-IV enzyme: 2 μM peptidomimetic
Experimental: as §1

[2] = system: RIN5F (Rat Insulinoma) cells; assay: In vitro glucose-dependent insulin secretion (RIN5F cell assay screening protocol); type: cell-based; conditions: 16.7 mM glucose load
[3] = Stability in human plasma; type: in vitro ADME; conditions: 2 μM peptidomimetic, pooled human plasma, 37° C.
Experimental: as §1

[4] = Stability in simulated gastric fluid; type: in vitro ADME; conditions: 2 μM peptidomimetic, simulated gastric fluid pH 1.5, 37° C.; for half-life at 2 μM: read-out: half-life (t1/2) when incubated with simulated gastric fluid
Experimental: as §1

[5] = Stability in liver microsomes; type: in vitro ADME; conditions: 2 μM peptidomimetic, human liver microsomes, 37° C.; for half-life at 2 μM: pH 7.8, read-out: half-life (t1/2) when incubated with liver microsomes
Experimental: as §1

Sequence of DPP IV (P27487 whole entry, species assumed): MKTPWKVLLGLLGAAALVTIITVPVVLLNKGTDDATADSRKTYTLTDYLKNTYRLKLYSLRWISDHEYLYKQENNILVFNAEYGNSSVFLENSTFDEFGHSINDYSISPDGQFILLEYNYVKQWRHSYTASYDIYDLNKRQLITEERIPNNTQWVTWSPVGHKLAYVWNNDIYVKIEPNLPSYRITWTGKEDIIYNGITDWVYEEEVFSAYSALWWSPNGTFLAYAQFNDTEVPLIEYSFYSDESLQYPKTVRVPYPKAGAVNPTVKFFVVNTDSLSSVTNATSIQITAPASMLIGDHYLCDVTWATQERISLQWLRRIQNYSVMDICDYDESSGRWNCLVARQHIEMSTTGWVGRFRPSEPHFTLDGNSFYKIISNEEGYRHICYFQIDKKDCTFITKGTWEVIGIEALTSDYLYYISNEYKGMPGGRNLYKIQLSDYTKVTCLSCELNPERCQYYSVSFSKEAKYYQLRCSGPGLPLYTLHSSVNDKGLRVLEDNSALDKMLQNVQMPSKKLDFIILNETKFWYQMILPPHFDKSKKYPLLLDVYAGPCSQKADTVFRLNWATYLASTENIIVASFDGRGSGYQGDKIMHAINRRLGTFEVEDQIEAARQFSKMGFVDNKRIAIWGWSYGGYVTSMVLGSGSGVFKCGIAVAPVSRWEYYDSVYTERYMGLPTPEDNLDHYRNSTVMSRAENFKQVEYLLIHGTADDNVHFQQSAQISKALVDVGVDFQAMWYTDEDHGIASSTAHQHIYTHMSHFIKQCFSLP
T2 sequence (P47871 26-477): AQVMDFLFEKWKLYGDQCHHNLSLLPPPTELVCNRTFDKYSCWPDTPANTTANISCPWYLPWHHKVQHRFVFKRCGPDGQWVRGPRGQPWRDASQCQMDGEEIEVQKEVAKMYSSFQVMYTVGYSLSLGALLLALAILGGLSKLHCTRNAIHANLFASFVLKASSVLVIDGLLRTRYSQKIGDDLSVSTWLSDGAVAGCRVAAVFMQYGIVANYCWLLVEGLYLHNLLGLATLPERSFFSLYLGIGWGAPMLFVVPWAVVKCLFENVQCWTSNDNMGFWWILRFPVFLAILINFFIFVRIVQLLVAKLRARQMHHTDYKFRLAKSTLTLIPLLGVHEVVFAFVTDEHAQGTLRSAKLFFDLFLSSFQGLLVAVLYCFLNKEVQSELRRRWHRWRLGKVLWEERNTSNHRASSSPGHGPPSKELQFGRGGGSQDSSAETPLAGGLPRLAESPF
T1 sequence (P43220 24-463): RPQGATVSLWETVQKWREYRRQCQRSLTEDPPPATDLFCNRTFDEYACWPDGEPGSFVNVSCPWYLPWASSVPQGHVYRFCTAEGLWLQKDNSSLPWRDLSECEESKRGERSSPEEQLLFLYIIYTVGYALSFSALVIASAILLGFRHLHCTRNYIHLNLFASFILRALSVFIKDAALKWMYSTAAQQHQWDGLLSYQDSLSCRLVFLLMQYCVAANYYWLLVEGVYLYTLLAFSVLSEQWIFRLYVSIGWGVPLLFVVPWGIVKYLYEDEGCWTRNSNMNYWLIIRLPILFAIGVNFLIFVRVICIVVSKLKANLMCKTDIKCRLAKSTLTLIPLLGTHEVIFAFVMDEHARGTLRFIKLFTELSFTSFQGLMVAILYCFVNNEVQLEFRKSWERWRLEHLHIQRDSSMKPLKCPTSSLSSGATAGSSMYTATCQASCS

For CCc1cc(OC)ccc1-c1ccc(CC(NC(=O)[C@H](CC(=O)O)NC(=O)[C@H](CO)NC(=O)[C@@H](NC(=O)[C@H](Cc2ccccc2)NC(=O)[C@@H](NC(=O)CNC(=O)C(CCC#N)NC(=O)C(C)(C)NC(=O)[C@@H](N)Cc2c[nH]cn2)[C@@H](C)O)[C@@H](C)O)C(=O)NC(CCCc2cc(C)cc(C)c2)C(N)=O)cc1 (single isomer, unassigned) [compound 30], the “Human GLP-1 R activity (cAMP release), % activity with respect to control” value (Human GLP-1 receptor; 1 nM test compound) was 38 ± 0.12%, the “Human GLP-1 R activity (cAMP release), % activity with respect to control” value (Human GLP-1 receptor; 10 nM test compound) was 78 ± 0.15% and the “Human GLP-1 R activity (cAMP release), % activity with respect to control” value (Human GLP-1 receptor; 100 nM test compound) was 86 ± 0.18%. For the same molecule, the “Human GLP-1 R activity (cAMP release), % activity with respect to control” value (Human GLP-1 receptor; 1 μM test compound) was 95 ± 0.03%, the “Human GLP-1 R activity (cAMP release), % activity with respect to control” value (Human GLP-1 receptor; 10 μM test compound) was 98 ± 0.09% and the “Human Glucagon receptor antagonistic activity shown as inhibition of cAMP production of Glucagon peptide” value (human glucagon receptor; 1 nM test compound) was 22 ± 0.03 pmol/ml/μg prt. For the same molecule, the “Human Glucagon receptor antagonistic activity shown as inhibition of cAMP production of Glucagon peptide” value (human glucagon receptor; 10 nM test compound) was 21 ± 0.05 pmol/ml/μg prt, the “Human Glucagon receptor antagonistic activity shown as inhibition of cAMP production of Glucagon peptide” value (human glucagon receptor; 100 nM test compound) was 20 ± 0.07 pmol/ml/μg prt and the “Human Glucagon receptor antagonistic activity shown as inhibition of cAMP production of Glucagon peptide” value (human glucagon receptor; 1 μM test compound) was 18 ± 0.04 pmol/ml/μg prt. The “Human Glucagon receptor antagonistic activity shown as inhibition of cAMP production of Glucagon peptide” value (human glucagon receptor; 10 μM test compound) was 18 ± 0.03 pmol/ml/μg prt, the “% degradation of peptidomimetics in 24 h when incubated with simulated intestinal fluid” value (“% degradation … with simulated intestinal fluid” below) [1] was 00% and the half-life at 2 μM [1] was greater than 1440 min. The “% degradation of peptidomimetics in 24 h when incubated with DPP-IV enzyme” value (from here on “% degradation … with DPP-IV enzyme”) (DPP IV) was 00%, the half-life at 2 μM (DPP IV; DPP IV enzyme, pH 7.8, 2 μM peptidomimetic, read-out: half-life (t1/2) when incubated with DPP-IV enzyme) was greater than 1440 min and the Insulin secretion ([2]; 0.1 nM test compd.) was 17.1 ± 0.11 pg/µg/h. The Insulin secretion ([2]; 1 nM test compd.) was 23.1 ± 0.16 pg/µg/h, the Insulin secretion ([2]; 10 nM test compd.) was 37.0 ± 0.29 pg/µg/h and the “% degradation of peptidomimetics in 24 h when incubated with human plasma” value (from here on “% degradation … with human plasma”) [3] was 00%. For the same molecule, the half-life at 2 μM ([3]; pH 7.8, read-out: half-life (t1/2) when incubated with human plasma) was greater than 1440 min, the “% degradation of peptidomimetics in 24 h when incubated with simulated gastric fluid” value (“% degradation … with simulated gastric fluid” for short) [4] was 00% and the half-life at 2 μM [4] was greater than 1440 min. The “half-life (t1/2) when incubated with liver microsomes” value [5] was “(5) h” and the “% degradation of peptidomimetics in 24 h when incubated with liver microsomes” value (“% degradation … with liver microsomes” below) [5] was 33%.

For CCc1cc(OC)ccc1-c1ccc(CC(NC(=O)[C@H](CC(=O)O)NC(=O)[C@H](CO)NC(=O)[C@@H](NC(=O)[C@H](Cc2ccccc2)NC(=O)[C@@H](NC(=O)CNC(=O)[C@H](CCC(N)=O)NC(=O)[C@H](CO)NC(=O)[C@@H](N)Cc2c[nH]cn2)[C@@H](C)O)[C@@H](C)O)C(=O)NC(CCCc2ccccc2F)C(N)=O)cc1 (single isomer, unassigned) [compound 45], the “Human GLP-1 R activity (cAMP release), % activity with respect to control” value (Human GLP-1 receptor; 1 nM test compound) was 51 ± 0.03%, the “Human GLP-1 R activity (cAMP release), % activity with respect to control” value (Human GLP-1 receptor; 10 nM test compound) was 86 ± 0.40% and the “Human GLP-1 R activity (cAMP release), % activity with respect to control” value (Human GLP-1 receptor; 100 nM test compound) was 91 ± 0.21%. The “Human GLP-1 R activity (cAMP release), % activity with respect to control” value (Human GLP-1 receptor; 1 μM test compound) was 99 ± 0.32%, the “Human GLP-1 R activity (cAMP release), % activity with respect to control” value (Human GLP-1 receptor; 10 μM test compound) was 99 ± 0.21% and the “Human Glucagon receptor antagonistic activity shown as inhibition of cAMP production of Glucagon peptide” value (human glucagon receptor; 1 nM test compound) was 15 ± 0.11 pmol/ml/μg prt. The “Human Glucagon receptor antagonistic activity shown as inhibition of cAMP production of Glucagon peptide” value (human glucagon receptor; 10 nM test compound) was 12 ± 0.13 pmol/ml/μg prt, the “Human Glucagon receptor antagonistic activity shown as inhibition of cAMP production of Glucagon peptide” value (human glucagon receptor; 100 nM test compound) was 8 ± 0.09 pmol/ml/μg prt and the “Human Glucagon receptor antagonistic activity shown as inhibition of cAMP production of Glucagon peptide” value (human glucagon receptor; 1 μM test compound) was 4 ± 0.01 pmol/ml/μg prt. For the same molecule, the “Human Glucagon receptor antagonistic activity shown as inhibition of cAMP production of Glucagon peptide” value (human glucagon receptor; 10 μM test compound) was 2 ± 0.08 pmol/ml/μg prt, the “% degradation … with simulated intestinal fluid” value [1] was 100% and the half-life at 2 μM [1] was 30 min. The “% degradation … with DPP-IV enzyme” value (DPP IV) was 77%, the Insulin secretion ([2]; 0.1 nM test compd.) was 11.8 ± 0.50 pg/µg/h and the Insulin secretion ([2]; 1 nM test compd.) was 14.9 ± 0.11 pg/µg/h. For the same molecule, the Insulin secretion ([2]; 10 nM test compd.) was 27.9 ± 0.31 pg/µg/h, the “half-life (t1/2) when incubated with human plasma” value (“half-life … with human plasma” below) [3] was “(9) h” and the “% degradation … with human plasma” value [3] was 80%. For the same molecule, the “% degradation … with simulated gastric fluid” value [4] was 100%, the half-life at 2 μM [4] was 30 min and the “% degradation … with liver microsomes” value [5] was 100%. It also gave a half-life at 2 μM [5] of 30 min.

In the case of CCc1cc(OC)ccc1-c1ccc(CC(NC(=O)[C@H](CC(=O)O)NC(=O)[C@H](CO)NC(=O)[C@@H](NC(=O)[C@H](Cc2ccccc2)NC(=O)[C@@H](NC(=O)CNC(=O)C(CCC#N)NC(=O)C(C)(C)NC(=O)[C@@H](N)Cc2c[nH]cn2)[C@@H](C)O)[C@@H](C)O)C(=O)NC(CCCc2ccccc2F)C(N)=O)cc1 (single isomer, unassigned) [compound 77], the “Human GLP-1 R activity (cAMP release), % activity with respect to control” value (Human GLP-1 receptor; 1 nM test compound) is reported as 40 ± 0.09%, the “Human GLP-1 R activity (cAMP release), % activity with respect to control” value (Human GLP-1 receptor; 10 nM test compound) is reported as 81 ± 0.07% and the “Human GLP-1 R activity (cAMP release), % activity with respect to control” value (Human GLP-1 receptor; 100 nM test compound) is reported as 87 ± 0.04%. For the same molecule, the “Human GLP-1 R activity (cAMP release), % activity with respect to control” value (Human GLP-1 receptor; 1 μM test compound) was 95 ± 0.01%, the “Human GLP-1 R activity (cAMP release), % activity with respect to control” value (Human GLP-1 receptor; 10 μM test compound) was 98 ± 0.08% and the “Human Glucagon receptor antagonistic activity shown as inhibition of cAMP production of Glucagon peptide” value (human glucagon receptor; 1 nM test compound) was 20 ± 0.06 pmol/ml/μg prt. For the same molecule, the “Human Glucagon receptor antagonistic activity shown as inhibition of cAMP production of Glucagon peptide” value (human glucagon receptor; 10 nM test compound) was 18 ± 0.09 pmol/ml/μg prt, the “Human Glucagon receptor antagonistic activity shown as inhibition of cAMP production of Glucagon peptide” value (human glucagon receptor; 100 nM test compound) was 16 ± 0.01 pmol/ml/μg prt and the “Human Glucagon receptor antagonistic activity shown as inhibition of cAMP production of Glucagon peptide” value (human glucagon receptor; 1 μM test compound) was 14 ± 0.03 pmol/ml/μg prt. The “Human Glucagon receptor antagonistic activity shown as inhibition of cAMP production of Glucagon peptide” value (human glucagon receptor; 10 μM test compound) was 12 ± 0.01 pmol/ml/μg prt, the “% degradation … with simulated intestinal fluid” value [1] was 100% and the half-life at 2 μM [1] was 30 min. The “% degradation … with DPP-IV enzyme” value (DPP IV) was 74%, the Insulin secretion ([2]; 0.1 nM test compd.) was 15.6 ± 0.33 pg/µg/h and the Insulin secretion ([2]; 1 nM test compd.) was 21.8 ± 0.16 pg/µg/h. For the same molecule, the Insulin secretion ([2]; 10 nM test compd.) was 35.6 ± 0.26 pg/µg/h, the “half-life … with human plasma” value [3] was “(9) h” and the “% degradation … with human plasma” value [3] was 75%. The “% degradation … with simulated gastric fluid” value [4] was 100%, the half-life at 2 μM [4] was 30 min and the “% degradation … with liver microsomes” value [5] was 100%. For the same molecule, the half-life at 2 μM [5] was 30 min.

In the case of CCc1cc(OC)ccc1-c1ccc(CC(NC(=O)[C@H](CC(=O)O)NC(=O)[C@H](CO)NC(=O)[C@@H](NC(=O)[C@H](Cc2ccccc2)NC(=O)[C@@H](NC(=O)CNC(=O)C(CCC#N)NC(=O)C(C)(C)NC(=O)[C@@H](N)Cc2c[nH]cn2)[C@@H](C)O)[C@@H](C)O)C(=O)NC(CCCc2ccccc2C(F)(F)F)C(N)=O)cc1 (single isomer, unassigned) [compound 79], the “Human GLP-1 R activity (cAMP release), % activity with respect to control” value (Human GLP-1 receptor; 1 nM test compound) is reported as 62 ± 0.11%, the “Human GLP-1 R activity (cAMP release), % activity with respect to control” value (Human GLP-1 receptor; 10 nM test compound) is reported as 94 ± 0.09% and the “Human GLP-1 R activity (cAMP release), % activity with respect to control” value (Human GLP-1 receptor; 100 nM test compound) is reported as 99 ± 0.06%. The “Human GLP-1 R activity (cAMP release), % activity with respect to control” value (Human GLP-1 receptor; 1 μM test compound) was 99 ± 0.14%, the “Human GLP-1 R activity (cAMP release), % activity with respect to control” value (Human GLP-1 receptor; 10 μM test compound) was 99 ± 0.19% and the “Human Glucagon receptor antagonistic activity shown as inhibition of cAMP production of Glucagon peptide” value (human glucagon receptor; 1 nM test compound) was 6 ± 0.02 pmol/ml/μg prt. The “Human Glucagon receptor antagonistic activity shown as inhibition of cAMP production of Glucagon peptide” value (human glucagon receptor; 10 nM test compound) was 5 ± 0.03 pmol/ml/μg prt, the “Human Glucagon receptor antagonistic activity shown as inhibition of cAMP production of Glucagon peptide” value (human glucagon receptor; 100 nM test compound) was 2 ± 0.61 pmol/ml/μg prt and the “Human Glucagon receptor antagonistic activity shown as inhibition of cAMP production of Glucagon peptide” value (human glucagon receptor; 1 μM test compound) was 0 pmol/ml/μg prt. The “Human Glucagon receptor antagonistic activity shown as inhibition of cAMP production of Glucagon peptide” value (human glucagon receptor; 10 μM test compound) was 0 pmol/ml/μg prt, the “% degradation … with simulated intestinal fluid” value [1] was 100% and the half-life at 2 μM [1] was 30 min. For the same molecule, the “% degradation … with DPP-IV enzyme” value (DPP IV) was 86%, the Insulin secretion ([2]; 0.1 nM test compd.) was 16.5 ± 0.12 pg/µg/h and the Insulin secretion ([2]; 1 nM test compd.) was 22.7 ± 0.17 pg/µg/h. For the same molecule, the Insulin secretion ([2]; 10 nM test compd.) was 36.5 ± 0.05 pg/µg/h, the “half-life … with human plasma” value [3] was “(9) h” and the “% degradation … with human plasma” value [3] was 70%. For the same molecule, the “% degradation … with simulated gastric fluid” value [4] was 100%, the half-life at 2 μM [4] was 30 min and the “% degradation … with liver microsomes” value [5] was 100%. The half-life at 2 μM [5] was 30 min.
